Data set [1] concerns L1210. The experiment in a line: cells. The conditions noted are these: Mus musculus, L1210, 48 h.
Description: Antiproliferative activity against mouse L1210 cells after 48 hrs by MTT assay
The test system of data set [2] is HeLa. The experiment in a line: Antiproliferative activity against human HeLa cells after 72 hrs by MTT assay. It is filed as functional, cell-based. (Formazan colour is commonly taken as a measure of viable cells.)
Data set [3] has as its system Calf thymus DNA. Conditions: Bos taurus.
Description: Binding affinity to calf thymus DNA assessed as binding constant by Scatchard plot analysis
The test system of data set [4] is K562. The experiment in a line: cells. The conditions noted are these: Homo sapiens, K562, 72 h.
Description: Antiproliferative activity against human K562 cells after 72 hrs by MTT assay
The subject of data set [5] is HCT-116. In words: Induction of apoptosis in human HCT116 cells assessed as late apoptotic cells at 1 uM after 48 hrs by Annexin V-FITC/propidium iodide staining based assay (reference value: 1 +/- 1%). The format is functional.
Data set [6] deals with PBL. In words: Cytotoxicity against human PBL assessed as reduction in cell viability after 72 hrs by MTT assay. The format is cell-based.
In data set [7] the test system is P388. The experiment in a line: Antitumor activity against mouse P388 cells transplanted in DBA2/BDF1 mouse assessed as mean life span at 50 mg/kg, ip dosed daily for 5 days (reference value: 9.7 +/- 1.1 day). The format is functional.
For data set [8], the target named is T1, DNA topoisomerase 1 (Homo sapiens) (UniProt P11387).
T1 sequence (whole entry): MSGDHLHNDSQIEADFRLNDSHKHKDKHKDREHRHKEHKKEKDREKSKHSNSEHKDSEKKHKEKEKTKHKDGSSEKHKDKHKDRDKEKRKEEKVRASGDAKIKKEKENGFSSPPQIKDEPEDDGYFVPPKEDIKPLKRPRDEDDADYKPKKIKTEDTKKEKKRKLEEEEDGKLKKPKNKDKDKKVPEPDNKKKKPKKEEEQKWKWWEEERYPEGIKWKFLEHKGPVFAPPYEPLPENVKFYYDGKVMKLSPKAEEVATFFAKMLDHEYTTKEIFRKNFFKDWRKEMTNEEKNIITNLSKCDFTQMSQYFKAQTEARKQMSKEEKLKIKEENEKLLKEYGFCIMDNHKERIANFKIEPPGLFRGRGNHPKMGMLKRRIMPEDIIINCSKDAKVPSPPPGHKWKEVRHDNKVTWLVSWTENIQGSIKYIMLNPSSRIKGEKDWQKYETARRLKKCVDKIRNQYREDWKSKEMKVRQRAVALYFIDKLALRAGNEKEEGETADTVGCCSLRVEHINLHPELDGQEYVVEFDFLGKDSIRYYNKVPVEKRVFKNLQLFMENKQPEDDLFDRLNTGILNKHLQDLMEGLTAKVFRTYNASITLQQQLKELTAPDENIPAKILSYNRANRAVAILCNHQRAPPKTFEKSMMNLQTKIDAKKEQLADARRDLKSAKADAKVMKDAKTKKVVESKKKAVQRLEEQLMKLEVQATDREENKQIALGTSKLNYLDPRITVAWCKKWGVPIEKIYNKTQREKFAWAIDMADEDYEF
The experiment in a line: Inhibition of topoisomerase 1 (unknown origin) assessed as attenuation of enzyme-mediated relaxation of supercoiled pBR322 DNA after 30 mins by agarose gel electrophoresis.

The target of data set [9] is DNA topoisomerase 2-alpha (Homo sapiens) (UniProt P11388). In words: Inhibition of human topoisomerase 2-alpha assessed as attenuation of enzyme-mediated relaxation of supercoiled pBR322 DNA at 40 uM after 30 mins by agarose gel electrophoresis.
Sequence of DNA topoisomerase 2-alpha (Homo sapiens) (P11388 whole entry): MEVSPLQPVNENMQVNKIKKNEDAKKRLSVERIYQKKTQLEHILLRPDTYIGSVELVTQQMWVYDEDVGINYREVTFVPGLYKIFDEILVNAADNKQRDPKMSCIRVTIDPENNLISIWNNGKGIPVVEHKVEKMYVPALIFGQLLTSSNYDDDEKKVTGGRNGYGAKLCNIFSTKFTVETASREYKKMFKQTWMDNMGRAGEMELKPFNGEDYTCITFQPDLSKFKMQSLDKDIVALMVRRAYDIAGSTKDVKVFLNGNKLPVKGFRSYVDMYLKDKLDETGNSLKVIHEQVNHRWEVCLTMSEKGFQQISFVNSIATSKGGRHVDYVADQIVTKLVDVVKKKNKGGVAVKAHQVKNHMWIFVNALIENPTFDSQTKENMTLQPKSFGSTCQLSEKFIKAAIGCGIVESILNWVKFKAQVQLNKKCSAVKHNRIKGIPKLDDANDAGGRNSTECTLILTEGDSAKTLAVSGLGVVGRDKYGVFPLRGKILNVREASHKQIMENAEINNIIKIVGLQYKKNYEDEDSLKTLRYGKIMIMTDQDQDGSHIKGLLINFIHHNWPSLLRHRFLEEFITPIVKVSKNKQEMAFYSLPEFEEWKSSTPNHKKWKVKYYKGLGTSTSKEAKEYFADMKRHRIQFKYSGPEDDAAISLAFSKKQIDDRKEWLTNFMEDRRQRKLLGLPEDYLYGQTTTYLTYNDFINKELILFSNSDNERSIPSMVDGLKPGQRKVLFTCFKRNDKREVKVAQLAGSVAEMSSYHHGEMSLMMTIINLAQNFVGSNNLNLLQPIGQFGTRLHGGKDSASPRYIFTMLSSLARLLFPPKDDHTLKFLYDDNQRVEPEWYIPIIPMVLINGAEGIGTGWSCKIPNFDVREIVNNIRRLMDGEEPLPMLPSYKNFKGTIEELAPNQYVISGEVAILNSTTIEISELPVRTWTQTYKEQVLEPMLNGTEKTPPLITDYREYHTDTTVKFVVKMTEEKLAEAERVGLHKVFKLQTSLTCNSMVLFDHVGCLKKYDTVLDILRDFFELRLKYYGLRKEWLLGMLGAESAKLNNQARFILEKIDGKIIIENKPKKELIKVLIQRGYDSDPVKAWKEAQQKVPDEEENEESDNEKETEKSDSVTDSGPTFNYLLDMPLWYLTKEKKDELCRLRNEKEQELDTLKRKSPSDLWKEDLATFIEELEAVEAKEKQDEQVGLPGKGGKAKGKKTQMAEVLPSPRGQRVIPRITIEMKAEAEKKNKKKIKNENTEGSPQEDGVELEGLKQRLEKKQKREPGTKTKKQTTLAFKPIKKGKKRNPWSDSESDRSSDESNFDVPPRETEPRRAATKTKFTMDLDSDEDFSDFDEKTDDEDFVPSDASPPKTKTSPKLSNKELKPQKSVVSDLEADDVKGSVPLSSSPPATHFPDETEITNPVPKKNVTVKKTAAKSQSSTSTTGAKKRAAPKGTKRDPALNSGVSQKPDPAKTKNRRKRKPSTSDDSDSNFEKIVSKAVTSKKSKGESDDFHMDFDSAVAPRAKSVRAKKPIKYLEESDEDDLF
Data set [10] has as its system Calf thymus DNA. In words: Binding affinity to calf thymus DNA at 5 uM by fluorescence assay. The format is nucleic-acid assay. The conditions noted are these: Bos taurus.
For data set [11], the system named is HCT-116. In words: Induction of apoptosis in p53 knockout human HCT116 cells assessed as necrotic cells at 1 uM after 48 hrs by Annexin V-FITC/propidium iodide staining based assay (reference value: 2 +/- 1%). The format is functional.
For data set [12], the system named is P388. In words: Antitumor activity against mouse P388 cells transplanted in DBA2/BDF1 mouse assessed as mean life span at 30 mg/kg, ip dosed daily for 5 days (reference value: 9.7 +/- 1.1 day). The format is functional.
Data set [13] deals with HCT-116. In words: Induction of apoptosis in human HCT116 cells assessed as early apoptotic cells at 1 uM after 24 hrs by Annexin V-FITC/propidium iodide staining based assay (reference value: 2 +/- 1%). The format is functional.
A short description of data set [14]: Cell cycle arrest in human HCT116 cells assessed as accumulation in G2/M phase at 1 uM after 24 hrs. It is filed as functional, cell-based. Conditions: HCT-116.
The subject of data set [15] is HCT-116. In words: Induction of apoptosis in human HCT116 cells assessed as viable cells at 1 uM after 24 hrs by Annexin V-FITC/propidium iodide staining based assay (reference value: 95 +/- 2%). It is filed as functional.
In data set [16] the test system is P388. In words: Antitumor activity against mouse P388 cells transplanted in DBA2/BDF1 mouse assessed as mean life span at 10 mg/kg, ip dosed daily for 5 days (reference value: 9.6 +/- 0.5 day). It is filed as functional.
In data set [17] the target is Dual serine/threonine and tyrosine protein kinase (Homo sapiens, UniProt Q6XUX3). In words: Inhibition of human RIPK5 by flashplate based radiometric 33pan-quinase assay.
Sequence of Dual serine/threonine and tyrosine protein kinase (Q6XUX3 whole entry): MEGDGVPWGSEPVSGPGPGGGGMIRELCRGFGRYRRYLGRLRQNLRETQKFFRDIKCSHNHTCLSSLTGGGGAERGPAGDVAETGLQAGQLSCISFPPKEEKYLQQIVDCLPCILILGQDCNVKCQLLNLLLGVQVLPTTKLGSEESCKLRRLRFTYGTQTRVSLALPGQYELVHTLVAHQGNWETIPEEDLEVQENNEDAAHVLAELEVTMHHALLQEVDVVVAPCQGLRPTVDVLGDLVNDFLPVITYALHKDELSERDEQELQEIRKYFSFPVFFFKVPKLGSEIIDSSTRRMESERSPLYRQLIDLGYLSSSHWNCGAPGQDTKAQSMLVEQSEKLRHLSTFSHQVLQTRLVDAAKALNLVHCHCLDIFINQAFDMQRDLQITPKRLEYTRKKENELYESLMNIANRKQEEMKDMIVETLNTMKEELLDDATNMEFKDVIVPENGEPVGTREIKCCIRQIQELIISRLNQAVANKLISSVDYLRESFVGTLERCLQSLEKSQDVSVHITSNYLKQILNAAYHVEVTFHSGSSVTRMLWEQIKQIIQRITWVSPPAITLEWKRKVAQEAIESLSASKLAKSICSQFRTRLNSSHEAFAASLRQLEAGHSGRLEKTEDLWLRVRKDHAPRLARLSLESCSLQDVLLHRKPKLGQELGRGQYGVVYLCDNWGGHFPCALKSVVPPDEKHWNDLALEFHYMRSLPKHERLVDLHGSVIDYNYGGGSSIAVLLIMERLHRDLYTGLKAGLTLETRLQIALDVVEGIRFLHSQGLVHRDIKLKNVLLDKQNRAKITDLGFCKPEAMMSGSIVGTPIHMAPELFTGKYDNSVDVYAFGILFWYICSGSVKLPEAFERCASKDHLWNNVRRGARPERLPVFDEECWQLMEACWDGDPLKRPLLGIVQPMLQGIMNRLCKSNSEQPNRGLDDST
For data set [18], the system named is P388. The experiment in a line: Antitumor activity against mouse P388 cells transplanted in DBA2/BDF1 mouse assessed as mean life span at 20 mg/kg, ip dosed daily for 5 days relative to control. It is filed as functional.
The target of data set [19] is MAP kinase-interacting serine/threonine-protein kinase 1 (Homo sapiens, UniProt Q9BUB5). In words: Inhibition of human MKNK1 by flashplate based radiometric 33pan-quinase assay.
Sequence of MAP kinase-interacting serine/threonine-protein kinase 1 (Q9BUB5 whole entry): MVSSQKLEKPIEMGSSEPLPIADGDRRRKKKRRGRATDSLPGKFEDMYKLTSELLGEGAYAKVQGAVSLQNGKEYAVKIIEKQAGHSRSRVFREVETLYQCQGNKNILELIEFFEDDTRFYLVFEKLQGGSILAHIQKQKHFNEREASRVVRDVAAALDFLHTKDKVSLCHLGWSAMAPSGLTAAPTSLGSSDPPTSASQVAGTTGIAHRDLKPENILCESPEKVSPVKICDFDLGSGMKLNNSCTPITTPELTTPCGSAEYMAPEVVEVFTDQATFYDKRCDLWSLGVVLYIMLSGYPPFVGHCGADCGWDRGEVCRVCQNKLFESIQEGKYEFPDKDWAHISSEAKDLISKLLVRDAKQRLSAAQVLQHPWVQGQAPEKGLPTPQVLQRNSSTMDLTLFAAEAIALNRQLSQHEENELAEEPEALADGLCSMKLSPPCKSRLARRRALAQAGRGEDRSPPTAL
Data set [20] relates to Mus musculus. In words: Toxicity in DBA2/BDF1 mouse transplanted with mouse P388 cells assessed as reduction in spleen mass at 50 mg/kg, ip dosed daily for 5 days relative to control. It is filed as organism-based. Further details: scale not given: the % may be the effect or the level left. The conditions noted are these: in vivo, 120 h.
Data set [21] concerns the target Serine/threonine-protein kinase pim-1 (Homo sapiens, UniProt P11309). In words: Inhibition of full length human N-terminal GST-HIS6-tagged PIM1 expressed in sf9 cells by flashplate based radiometric 33pan-quinase assay.
Data set [22] deals with Mitogen-activated protein kinase kinase kinase 7 (Homo sapiens, UniProt O43318). In words: Inhibition of human MAP3K7 by flashplate based radiometric 33pan-quinase assay.
Sequence of Mitogen-activated protein kinase kinase kinase 7 (O43318 whole entry): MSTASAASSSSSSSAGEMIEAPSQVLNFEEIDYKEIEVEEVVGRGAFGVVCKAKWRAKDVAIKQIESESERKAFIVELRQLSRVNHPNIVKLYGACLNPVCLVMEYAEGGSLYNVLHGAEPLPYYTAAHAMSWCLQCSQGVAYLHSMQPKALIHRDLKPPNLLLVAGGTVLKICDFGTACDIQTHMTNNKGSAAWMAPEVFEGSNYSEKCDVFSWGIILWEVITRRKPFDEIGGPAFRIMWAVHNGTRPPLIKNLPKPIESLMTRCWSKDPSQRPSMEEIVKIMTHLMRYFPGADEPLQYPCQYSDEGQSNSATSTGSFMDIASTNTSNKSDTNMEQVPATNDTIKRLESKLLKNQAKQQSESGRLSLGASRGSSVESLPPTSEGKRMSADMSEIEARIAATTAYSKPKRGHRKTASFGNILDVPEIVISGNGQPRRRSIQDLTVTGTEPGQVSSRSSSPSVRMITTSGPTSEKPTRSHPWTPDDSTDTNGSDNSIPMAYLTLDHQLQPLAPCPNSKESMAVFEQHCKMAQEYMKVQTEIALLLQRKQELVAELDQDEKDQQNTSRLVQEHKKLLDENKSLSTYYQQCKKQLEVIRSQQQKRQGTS
Data set [23] deals with P388. In words: Antitumor activity against mouse P388 cells transplanted in DBA2/BDF1 mouse assessed as mean life span at 40 mg/kg, ip dosed daily for 5 days relative to control. The format is functional.
The target in data set [24] is Aurora kinase B (Homo sapiens, UniProt Q96GD4). The experiment in a line: Inhibition of full length human N-terminal GST-HIS6-tagged Aurora B expressed in sf9 cells by flashplate based radiometric 33pan-quinase assay.
Sequence of Aurora kinase B (Q96GD4 whole entry): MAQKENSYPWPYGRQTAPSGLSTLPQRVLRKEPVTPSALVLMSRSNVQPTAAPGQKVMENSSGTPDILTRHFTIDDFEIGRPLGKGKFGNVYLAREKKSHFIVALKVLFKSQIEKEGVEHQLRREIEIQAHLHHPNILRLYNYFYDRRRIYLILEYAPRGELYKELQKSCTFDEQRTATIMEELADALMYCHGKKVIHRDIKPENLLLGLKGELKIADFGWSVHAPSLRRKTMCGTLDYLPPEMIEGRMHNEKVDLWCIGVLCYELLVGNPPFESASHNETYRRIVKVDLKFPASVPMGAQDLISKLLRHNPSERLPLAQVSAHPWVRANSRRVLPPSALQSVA
Data set [25] concerns Mus musculus. The experiment in a line: Toxicity in mouse P388 cells transplanted DBA2/BDF1 mouse assessed as mouse mortality at 50 mg/kg, ip dosed daily for 5 days. The format is organism-based. Conditions: in vivo, 120 h.
For data set [26], the system named is P388. In words: Antitumor activity against mouse P388 cells transplanted in DBA2/BDF1 mouse assessed as mean life span at 20 mg/kg, ip dosed daily for 5 days (reference value: 9.6 +/- 0.5 day). The format is functional.
Data set [27] has as its system P388. The experiment in a line: Antitumor activity against mouse P388 cells transplanted in DBA2/BDF1 mouse assessed as mean life span at 30 mg/kg, ip dosed daily for 5 days (reference value: 9.6 to 9.7 day). It is filed as functional.
The target of data set [28] is Serine/threonine-protein kinase tousled-like 1 (Homo sapiens, UniProt Q9UKI8). In words: Inhibition of human N-terminal FLAG, C-terminal HIS8-tagged TLK1 expressed in sf9 cells by flashplate based radiometric 33pan-quinase assay.
Sequence of Serine/threonine-protein kinase tousled-like 1 (Q9UKI8 whole entry): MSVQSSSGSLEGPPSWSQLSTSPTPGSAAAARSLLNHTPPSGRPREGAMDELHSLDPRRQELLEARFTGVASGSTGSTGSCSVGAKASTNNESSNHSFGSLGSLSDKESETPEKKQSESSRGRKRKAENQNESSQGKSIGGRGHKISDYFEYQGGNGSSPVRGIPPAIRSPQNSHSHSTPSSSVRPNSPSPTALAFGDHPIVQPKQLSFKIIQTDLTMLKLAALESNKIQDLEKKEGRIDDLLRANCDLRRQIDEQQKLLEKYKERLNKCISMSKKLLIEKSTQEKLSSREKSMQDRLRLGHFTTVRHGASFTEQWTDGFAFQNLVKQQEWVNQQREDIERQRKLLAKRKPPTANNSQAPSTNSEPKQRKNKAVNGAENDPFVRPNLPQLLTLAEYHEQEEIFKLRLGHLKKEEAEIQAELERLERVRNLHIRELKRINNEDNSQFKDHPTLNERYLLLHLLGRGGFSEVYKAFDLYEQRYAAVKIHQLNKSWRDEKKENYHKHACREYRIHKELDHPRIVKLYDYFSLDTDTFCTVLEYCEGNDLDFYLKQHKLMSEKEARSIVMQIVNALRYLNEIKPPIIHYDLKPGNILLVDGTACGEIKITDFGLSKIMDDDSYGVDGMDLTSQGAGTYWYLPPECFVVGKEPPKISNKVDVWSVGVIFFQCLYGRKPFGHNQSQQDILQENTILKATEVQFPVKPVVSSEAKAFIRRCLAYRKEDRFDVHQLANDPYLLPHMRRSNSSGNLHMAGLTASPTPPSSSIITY
The subject of data set [29] is Mus musculus. In words: Toxicity in DBA2/BDF1 mouse transplanted with mouse P388 cells at 5 to 40 mg/kg, ip dosed daily for 5 days. The format is organism-based. Conditions: in vivo, 120 h.

pIC50: −log10 of the molar value. The source made the active and inactive calls. The calls are words filed in the database; no cut-off is given here.

The record followed here is ChEMBL document CHEMBL3774310, “Discovery of antitumor anthra[2,3-b]furan-3-carboxamides: Optimization of synthesis and evaluation of antitumor properties” (Eur J Med Chem, 2016).

The term pIC50 denotes −log10 of the IC50, conventionally taken in molar units.

Sequence of Serine/threonine-protein kinase pim-1 (P11309 whole entry): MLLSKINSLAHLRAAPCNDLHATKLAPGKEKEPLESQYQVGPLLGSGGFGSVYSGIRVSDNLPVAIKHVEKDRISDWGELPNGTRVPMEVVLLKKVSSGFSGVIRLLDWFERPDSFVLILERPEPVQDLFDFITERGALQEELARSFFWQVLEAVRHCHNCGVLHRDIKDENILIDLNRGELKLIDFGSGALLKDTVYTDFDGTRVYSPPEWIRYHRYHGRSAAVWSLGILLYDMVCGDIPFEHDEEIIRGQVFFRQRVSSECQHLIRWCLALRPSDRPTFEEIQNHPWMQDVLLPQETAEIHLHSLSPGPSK

With `CS(=O)(=O)O.Cc1oc2c(O)c3c(c(O)c2c1C(=O)N1CC[C@@H](N)C1)C(=O)c1ccccc1C3=O`, the pIC50 is 5.72 in data set [1], 5.68 in data set [2] and 5.96 in data set [4]. Further, in data set [3], the Ka turned out to be 5 ×10⁵ /M. Further, the outcome in data set [5], in data set [9], in data set [10], in [11], in [13] and in data set [14] was Active. For the same compound, the outcome in data set [15] was Active. Further, the Activity result in data set [6] was “Non-toxic”; in data set [7] it was 17.3 days; in [8], “Dose-dependent effect”; in [12], 11.8 days.
Consider `CS(=O)(=O)O.Cc1oc2c(O)c3c(c(O)c2c1C(=O)N1CC[C@H](N)C1)C(=O)c1ccccc1C3=O`, for which the Activity in data set [16] was 16.3 days; in [5], 13%; in data set [6] it was “Non-toxic”; in data set [18] it was 222%; in [7], 6.5 days; in data set [20], 40%. Further, the Activity result was “Dose-dependent effect” in data set [8]; 262% in data set [23]; “Toxic” in [25]; 33% in data set [11]; 21.3 days in data set [26]; 20.8 days in data set [27]. For the same compound, the Activity in data set [13] was 20%; in [29] it was “Non-toxic”. Further, the pIC50 in data set [17], in [19], in [21], in [22], in data set [24] and in data set [28] was > 5.30 throughout. Besides, the result in data set [9], in [10] and in data set [14] was Active. Also, the viability at 1 µM in [15] (HCT-116, 24 h, read-out: Activity) is 58%.
